Active and inactive are the calls of the source. The calls are words filed in the database; no cut-off is given here.
Experiments:
BJAB [1] = assay: Antiproliferative activity against human BJAB cells after 48 hrs; assay type: functional
BJAB [2] = assay: Induction of apoptosis of human BJAB cells as measured by DNA fragmentation at 100 uM after 72 hrs; assay type: functional
BJAB [3] = assay: Induction of mitochondrial permeability transition in human BJAB cells after 48 hrs; assay type: functional, cell-based
BJAB [4] = assay: Loss of mitochondrial membrane potential in human BJAB cells at 100 uM; assay type: functional, cell-based
BJAB [5] = assay: Antiproliferative activity against human BJAB cells after 24 hrs; assay type: functional
Leukemia cell [6] = assay: Induction of apoptosis in ALL cells at 100 uM after 60 hrs; assay type: functional, cell-based; settings: Homo sapiens
Leukemia cell [7] = assay: Induction of apoptosis in AML cells at 100 uM after 60 hrs; assay type: functional, cell-based; settings: Homo sapiens

C=C1CC[C@@H]2[C@](C)(CCC[C@]2(C)C(=O)OC)[C@H]1CCC1=CCOC1=O [PINUSOLIDE]
Activity (BJAB [1]): 86%
Activity (BJAB [2]): 70%
Activity (BJAB [3]): Dose-dependent effect
Activity (BJAB [4]): Active
Activity (BJAB [5]): 44%
Activity (Leukemia cell [6]): Active
Activity (Leukemia cell [7]): Active

— ChEMBL document CHEMBL1146188, “Gram-scale synthesis of pinusolide and evaluation of its antileukemic potential” (2006)
